Measured values published in ChEMBL document CHEMBL3885861, “Open TG-GATES”.

Species on record: Rattus norvegicus
Assay: Open TG-GATES - Regimen: Single
Type: toxicity, organism-based, Sprague-Dawley
Parameters: regimen Single, gender Male, age 6 weeks
Conditions: in vivo, po, 100 mg/kg, route gavage, dose level Low; for APTT / Bas / Eos / Fbg / Hb / Ht / Lym / MCH / MCHC / MCV / Mono / Neu / PT / Plat / RBC / Ret / WBC: tissue Blood; for KIDNEY_L / KIDNEY_R / KIDNEY_TOTAL: tissue Kidney; for LIVER: tissue Liver; for ALP / ALT / AST / CRE / DBIL / GLC / IP / K / LDH / Na / PL / RALB / TBIL / TC / TP / gamma-GTP: tissue Plasma

## Clc1ccccc1CN1CCc2sccc2C1 [TICLOPIDINE]
3 h
  TERMINAL_BW: 210.7 g
  APTT: 19.6 s
  Bas: 0.2%
  Eos: 0.8%
  Fbg: 226.4 mg/dL
  Hb: 13.4 g/dL
  Ht: 38.3%
  Lym: 78.6%
  MCH: 21.4 pg
  MCHC: 35%
  MCV: 61.1 fL
  Mono: 2.8%
  Neu: 16.6%
  PT: 12.2 s
  Plat: 117.9 x10_4/uL
  RBC: 628 x10_4/ul
  Ret: 8.1%
  WBC: 70.6 x10_2/uL
  KIDNEY_L: 1 g
  KIDNEY_R: 1 g
  KIDNEY_TOTAL: 2 g
  LIVER: 9 g
  ALP: 1125 IU/L
  ALT: 35 IU/L
  AST: 71 IU/L
  CRE: 0.4 mg/dL
  DBIL: 0.076 mg/dL
  GLC: 200.6 mg/dL
  IP: 10.6 mg/dL
  K: 3.9 meq/L
  LDH: 155.4 IU/L
  Na: 141.4 meq/L
  PL: 132.2 mg/dL
  RALB: 3.3 g/dL
  TBIL: 0.1 mg/dL
  TC: 70.2 mg/dL
  TP: 5.5 g/dL
  gamma-GTP: 0.8 IU/L
6 h
  TERMINAL_BW: 209.6 g
  APTT: 18.1 s
  Bas: 0.4%
  Eos: 1%
  Fbg: 231.6 mg/dL
  Hb: 13.4 g/dL
  Ht: 37.9%
  Lym: 76%
  MCH: 20.8 pg
  MCHC: 35.3%
  MCV: 58.9 fL
  Mono: 2.8%
  Neu: 19.2%
  PT: 12.3 s
  Plat: 130.4 x10_4/uL
  RBC: 643.6 x10_4/ul
  Ret: 7.9%
  WBC: 75.4 x10_2/uL
  KIDNEY_L: 0.9 g
  KIDNEY_R: 0.9 g
  KIDNEY_TOTAL: 1.8 g
  LIVER: 8.7 g
  ALP: 940.2 IU/L
  ALT: 31.6 IU/L
  AST: 68.4 IU/L
  CRE: 0.4 mg/dL
  DBIL: 0.08 mg/dL
  GLC: 189 mg/dL
  IP: 10.1 mg/dL
  K: 3.9 meq/L
  LDH: 212 IU/L
  Na: 141.4 meq/L
  PL: 137.2 mg/dL
  RALB: 3.4 g/dL
  TBIL: 0.1 mg/dL
  TC: 77.8 mg/dL
  TP: 5.5 g/dL
  gamma-GTP: 0.8 IU/L
9 h
  TERMINAL_BW: 208 g
  APTT: 17.3 s
  Bas: 0.2%
  Eos: 0.6%
  Fbg: 226.6 mg/dL
  Hb: 13.3 g/dL
  Ht: 37.5%
  Lym: 74.6%
  MCH: 21.4 pg
  MCHC: 35.4%
  MCV: 60.5 fL
  Mono: 2.8%
  Neu: 20.6%
  PT: 12.7 s
  Plat: 123.9 x10_4/uL
  RBC: 621.6 x10_4/ul
  Ret: 7.5%
  WBC: 81 x10_2/uL
  KIDNEY_L: 0.9 g
  KIDNEY_R: 0.9 g
  KIDNEY_TOTAL: 1.9 g
  LIVER: 8.3 g
  ALP: 955 IU/L
  ALT: 29.6 IU/L
  AST: 69.8 IU/L
  CRE: 0.4 mg/dL
  DBIL: 0.082 mg/dL
  GLC: 199.8 mg/dL
  IP: 10 mg/dL
  K: 3.8 meq/L
  LDH: 151.2 IU/L
  Na: 142.6 meq/L
  PL: 141.6 mg/dL
  RALB: 3.4 g/dL
  TBIL: 0.1 mg/dL
  TC: 77.6 mg/dL
  TP: 5.4 g/dL
  gamma-GTP: 1.4 IU/L
24 h
  TERMINAL_BW: 219.8 g
  APTT: 21.2 s
  Bas: 1%
  Eos: 1%
  Fbg: 222 mg/dL
  Hb: 13.6 g/dL
  Ht: 38.3%
  Lym: 77.8%
  MCH: 21.7 pg
  MCHC: 35.5%
  MCV: 61.3 fL
  Mono: 2.8%
  Neu: 16.8%
  PT: 12 s
  Plat: 124.9 x10_4/uL
  RBC: 624.4 x10_4/ul
  Ret: 6.3%
  WBC: 116 x10_2/uL
  KIDNEY_L: 1 g
  KIDNEY_R: 1 g
  KIDNEY_TOTAL: 2 g
  LIVER: 10.1 g
  ALP: 1052.4 IU/L
  ALT: 37.8 IU/L
  AST: 70.2 IU/L
  CRE: 0.4 mg/dL
  DBIL: 0.072 mg/dL
  GLC: 188.6 mg/dL
  IP: 8.1 mg/dL
  K: 4.1 meq/L
  LDH: 141.4 IU/L
  Na: 141.6 meq/L
  PL: 136.4 mg/dL
  RALB: 3.4 g/dL
  TBIL: 0.1 mg/dL
  TC: 72.2 mg/dL
  TP: 5.5 g/dL
  gamma-GTP: 1 IU/L
